For test [1], the system named is cut pieces of the leaf, shoot and root tissues of the Ficus stipulata Thunb. Description: Experiment 1: polyblast formation from cut pieces cultured on medium containing thidiazuron and/or benzyladenine. It counts as cell-based. The following applies: for Number of cut piece* (cut pieces with polyblast formation × 100/cut piece) / Number of shoots/cut piece: one month after the culturing; for induction of the Ficus stipulata Thunb. (polyblast formation / redifferentiation): culture medium containing at least one of TDZ and/or BA. The method, then:
A culture medium in which the MS culture medium or the WP culture medium was used as a fundamental culture medium and 1% sucrose and 0.3% Gellan Gum were added as the carbonaceuous source and a gelling agent, respectively, was used.
Cut pieces, 0.5˜1 mm long, were prepared from leaf, shoot and root tissues of the Ficus stipulata Thunb. asepatically cultured. The cut pieces of the leaf, shoot and root tissues of the Ficus stipulata Thunb. thus prepared were implanted on a culture medium containing thidiazuron and/or benzyladenine as plant hormones, thereby culturing the Ficus stipulata Thunb. One month after the culturing, it was observed that polyblasts were formed from the cut pieces. The polyblasts were cut out, their cut edge were coated with iondoleacetic acid, and the polyblasts were implanted into the above culture medium or a culture containing pearlite and vermiculite, and allowed to take roots.

For test [2], the system named is cut pieces from stem apexes, nodes and stem portions of Ficus stipulata Thunb. Nature of the test: Experiment 2: redifferentiation condition, polyblasts and buds formed at stem apex cut pieces. It is filed as cell-based. The following applies: for Number of cut pieces* in which polyflasts were formed at a stem apex: of 4 cut pieces; for Number of cut pieces* in which polyflasts were formed at a stem apex / Number of buds formed: six weeks; for Number of buds formed: stem apex; for redifferential state: used as the plant hormone, bright condition, WP culture medium. Here is the method:
A redifferentiation condition most suitable for the introduction of a gene into the Ficus stipulata Thunb. was examined, and the gene was tried introduced thereinto.
First, the redifferentiation condition was examined. As the Ficus stipulata Thunb., one sterilized and aseptically subcultured was used. The Ficus stipulata Thunb. aseptically grown (4 to 6 weeks after implanting the cutting) used, and cut pieces were prepared from stem apexes, nodes and stem portions, and implanted in the culture medium. Six weeks later, the number and the shape of buds were observed. In culturing the Ficus stipulata Thunb., 1/3 of a block of Florialite (a mixture of vermiculite and cellulose fibers) was added into a test tube (30×200 mm), to which 15 ml of the MS culture medium or the WP culture medium was added. The test tube was closed with a polypropylene cap, which was placed in an autoclave.
A braird appearing in the Ficus stipulata Thunb. having been aseptically subcultured in an Agripot (a plastic container) was cut by about 2 to 3 cm, its cut section was immersed into a 1 g/l solution (1 g/l) of 4-(3-indolyl)butyric acid, and the cut piece was implanted in the test piece thus prepared, and subjected to 4 to 8 week culturing.
The culturing conditions were: atmospheric temperature 25° C., illumination intensity 30˜40 μEm^−2s^−1, a bright condition of 30˜40μEm^−2s^−1 for 15 hours and a dark condition of 1˜2μEm^−2s^−1 for 9 hours.
The MS culture medium or the WP culture medium was used as a fundamental culture medium. Sucrose 2% was added into each of the culture media, thereby adjusting the pH values of the MS culture medium and the WP culture medium to 5.6 and 5.2, respectively. Further, Gellan Gum 3% was added to the culture medium, and it was autoclaved at 120° C. for 15 minutes, thereby preparing a solid culture medium. As plant hormones, […] (NAA), benzylaminopurine (BA), thidiazuron(TDZ), abscisic acid (ABA) and silver nitrate (AgNO3) were used.

`c1ccc(CNc2ncnc3nc[nH]c23)cc1` [BA, benzyladenine]: the “Number of cut piece* (cut pieces with polyblast formation × 100/cut piece)” value in test [1] (BA 9 nM, TDZ 0 nM) is given as 50; in test [1] (BA 22 nM, TDZ 0 nM) it was 100; in test [1] (BA 36 nM, TDZ 0 nM), 100; in test [1] (BA 44 nM, TDZ 0 nM) it was 100. The “Number of shoots/cut piece” value in test [1] (BA 9 nM, TDZ 0 nM) is given as 1.8 ± 2.4; in test [1] (BA 22 nM, TDZ 0 nM), 3.5 ± 0.6; in test [1] (BA 36 nM, TDZ 0 nM), 2.5 ± 1.0; in test [1] (BA 44 nM, TDZ 0 nM), 3.8 ± 0.5. Also, the “induction of the Ficus stipulata Thunb. (polyblast formation / redifferentiation)” value in test [1] is reported as “could be induced at a high probability”. In addition, the “Number of cut pieces* in which polyflasts were formed at a stem apex” value in test [2] (BA 8.9 nM, TDZ 0 nM) was found to be 2; in test [2] (BA 22.2 nM, TDZ 0 nM), 4; in test [2] (BA 35.5 nM, TDZ 0 nM), 4; in test [2] (BA 44.4 nM, TDZ 0 nM) it was 4. Besides, the “Number of buds formed” value in test [2] (BA 8.9 nM, TDZ 0 nM) is 1.8 ± 2.4; in test [2] (BA 22.2 nM, TDZ 0 nM) it was 3.5 ± 0.6; in test [2] (BA 35.5 nM, TDZ 0 nM), 2.5 ± 1.0; in test [2] (BA 44.4 nM, TDZ 0 nM), 3.8 ± 0.5. Further, the redifferential state entry in test [2] was “good redifferential state”.

As for `O=C(Nc1ccccc1)Nc1cnns1` [TDZ, thidiazuron], the “Number of cut piece* (cut pieces with polyblast formation × 100/cut piece)” value amounted to 100 in test [1] (BA 0 nM, TDZ 1 nM); 100 in test [1] (BA 0 nM, TDZ 1 × 10^2 nM); 100 in test [1] (BA 0 nM, TDZ 1 × 10^4 nM). Also, the “Number of shoots/cut piece” value in test [1] (BA 0 nM, TDZ 1 nM) was determined as 1.5 ± 1.0; in test [1] (BA 0 nM, TDZ 1 × 10^2 nM) it was 2.5 ± 0.6; in test [1] (BA 0 nM, TDZ 1 × 10^4 nM), 1.5 ± 1.0. Besides, the “induction of the Ficus stipulata Thunb. (polyblast formation / redifferentiation)” value in test [1] was “could be induced at a high probability”. Also, the “Number of cut pieces* in which polyflasts were formed at a stem apex” value came out at 4 in test [2] (BA 0 nM, TDZ 1 nM); 4 in test [2] (BA 0 nM, TDZ 10^2 nM); 4 in test [2] (BA 0 nM, TDZ 10^4 nM). Besides, the “Number of buds formed” value in test [2] (BA 0 nM, TDZ 1 nM) stood at 1.5 ± 1.0; in test [2] (BA 0 nM, TDZ 10^2 nM), 2.5 ± 0.6; in test [2] (BA 0 nM, TDZ 10^4 nM) it was 1.5 ± 1.0. Moreover, the redifferential state entry in test [2] was “good redifferential state”.

The values above are taken from patent US20040191907A1, “Cultured cells of Ficus stipulata Thunb. (=Ficus thunbergii) and a method for culturing tissues of the Ficus stipulata Thunb. by using said cultured cells” (HIROSHIMA UNIVERSITY, priority 2001, published 2004).
